Measured values reported in patent US20050153894A1, “p21 peptides” (Cyclacel Limited, priority 1999, published 2005).
Square brackets hold non-standard residues; d marks the D form. Ends that are not written are not given here. Tic = O=C(O)[C@@H]1Cc2ccccc2CN1; Cha = N[C@@H](CC1CCCCC1)C(=O)O

How the values were obtained:
CDK2/cyclin A = CDK2/cyclin A (Homo sapiens, UniProt P20248); assay: CDK2/cyclin A kinase assay, substrate pRb(773-928); assay type: biochemical; settings: for Relative activity Kinase Inhibition: relative to H-His-Ala-Lys-Arg-Arg-Leu-Ile-Phe-NH2 (=1), pRb substrate, [ATP] = 100 μM
Text: Reactions were stopped on ice, followed by filtration through p81 filterplates (Whatman Polyfiltronics, Kent, UK).

Cyclin A = Cyclin A (Homo sapiens, UniProt P20248); assay: Cyclin A binding assay, immobilised biotinyl-Ahx-[…]NH2; settings: for Relative activity Cyclin A Binding: relative to H-His-Ala-Lys-Arg-Arg-Leu-Ile-Phe-NH2 (=1); for Cyclin A Binding Maximum Inhibition: at 100 μM, no IC50 given
Sequence of Cyclin A (P20248 whole entry): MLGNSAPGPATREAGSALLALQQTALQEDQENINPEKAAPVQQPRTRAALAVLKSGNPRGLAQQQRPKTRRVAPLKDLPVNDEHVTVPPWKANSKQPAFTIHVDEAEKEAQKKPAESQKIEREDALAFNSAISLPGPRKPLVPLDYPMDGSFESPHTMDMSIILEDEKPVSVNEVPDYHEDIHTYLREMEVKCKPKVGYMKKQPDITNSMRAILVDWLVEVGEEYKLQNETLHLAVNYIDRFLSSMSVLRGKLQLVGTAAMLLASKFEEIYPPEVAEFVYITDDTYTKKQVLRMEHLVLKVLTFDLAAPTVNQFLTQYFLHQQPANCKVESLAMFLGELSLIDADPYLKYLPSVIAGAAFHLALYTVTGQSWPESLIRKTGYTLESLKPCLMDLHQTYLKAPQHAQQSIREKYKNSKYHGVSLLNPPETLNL
Method: This was added to each well (100 μL). The plate was incubated for 1 h at room temperature with constant shaking. The plate was washed once quickly with TBS/BSA buffer (200 μL), followed by three more washes with TBS/BSA buffer (200 μL) for 5 min each. Serial dilutions of test peptides were prepared in a new plate (50 μL in each well). Cyclin A was diluted to 5 μg/50 μL with TBS/BSA buffer and this was then added to each well (50 μL). The solutions were mixed thoroughly with a pipette (5-6 times), before being incubated for 30 min at room temperature. This reaction mixture was then transferred to the biotinylated peptide: streptavidin-coated plate and incubated for 1 h at room temperature with constant shaking. The plate was washed once quickly with TBS/BSA buffer (200 μL), followed by three more washes with TBS/BSA buffer (200 μL) for 5 min each. The cyclin A antibody (Santa Cruz polyclonal) solution was diluted 1:200 with TBS/BSA buffer and this was then added to each well of the plate (100 μL. The plate was incubated for 1 h at room temperature with constant shaking. The plate was washed once quickly with TBS/BSA buffer (200 μl), followed by three more washes with TBS/BSA buffer (200 μL) for 5 min each. The anti-rabbit secondary antibody (goat anti-rabbit IgG peroxidase conjugate) was diluted 1:10,000 with TBS/BSA and this was then added to each well of the plate (100 μL). The plate was incubated for 1 h at room temperature with constant shaking. The plate was washed once quickly with TBS/BSA buffer (200 μL), followed by three more washes with TBS/BSA buffer (200 μL) for 5 min each. To each well was added the TMB-ELISA reagent (Pierce 1-Step™ Turbo TMB-ELISA; 100 μL) and the plate incubated for 1 min with constant shaking. The reaction was then quenched by the addition of 2 M aqueous H2SO4 (100 μL, each well). The UV absorbance of the each solution was measured spectrophotometrically at 450 nm. IC50 values were calculated from dose-response curves.

CDK4/Cyclin D1 = molecular target: T1, CDK4/Cyclin D1 (Homo sapiens, UniProt P24385); assay: CDK4/Cyclin D1 kinase assay, phosphorylation of GST-Rb; assay type: biochemical
T1 construct: made in house; host or cells: CDK4: Sf9 insect cells (baculovirus)
T1 sequence (P24385 whole entry): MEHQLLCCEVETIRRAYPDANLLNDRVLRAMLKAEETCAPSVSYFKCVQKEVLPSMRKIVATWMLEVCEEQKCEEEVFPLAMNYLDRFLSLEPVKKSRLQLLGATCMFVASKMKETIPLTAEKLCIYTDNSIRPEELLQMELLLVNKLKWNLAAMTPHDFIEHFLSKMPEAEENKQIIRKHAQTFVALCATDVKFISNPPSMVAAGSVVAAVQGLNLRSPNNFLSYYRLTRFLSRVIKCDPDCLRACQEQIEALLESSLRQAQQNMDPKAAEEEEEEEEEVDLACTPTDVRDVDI
T1 sequence (P11802 whole entry partner): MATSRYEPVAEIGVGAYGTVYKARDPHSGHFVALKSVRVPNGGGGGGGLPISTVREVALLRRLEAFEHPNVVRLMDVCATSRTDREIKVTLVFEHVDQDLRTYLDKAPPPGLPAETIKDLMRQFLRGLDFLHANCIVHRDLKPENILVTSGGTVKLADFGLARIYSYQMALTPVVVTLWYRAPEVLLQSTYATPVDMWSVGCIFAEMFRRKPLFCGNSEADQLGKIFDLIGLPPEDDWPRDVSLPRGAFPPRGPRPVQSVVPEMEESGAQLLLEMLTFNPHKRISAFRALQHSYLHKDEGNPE
Method: (§1) The phosphorylation reaction mixture (total volume 40 μl) consisted of 50 mM HEPES pH 7.4, 20 mM MgCl2, 5 mM EGTA, 2 mM DTT, 20 mM β-glycerophosphate, 2 mM NaF, 1 mM Na3VO4, Protease Inhibitors Cocktail (Sigma, see above), BSA 0.5 mg/ml, 1 μg purified enzyme complex, 10 μl of GST-Rb-Sepharose beads, 100 μM ATP, 0.2 μCi ^32P-ATP. The reaction was carried out for 30 min at 30° C. at constant shaking. At the end of this period 100 μl of 50 mM HEPES, pH 7.4 and 1 mM ATP were added to each well and the total volume was transferred onto GFC filtered plate. The plate was washed 5 times with 200 μl of 50 mM HEPES, pH 7.4 and 1 mM ATP. To each well were added 50 μl scintillant liquid and the radioactivity of the samples was measured on Scintilation counter (Topcount, HP). The IC50 values of different peptides were calculated using GraFit software.
Peptides were synthesized as described above. Cyclin D1 was expressed in E coli BL21(DE3) using PET expression vector and purified from the inclusion bodies. After refolding Cyclin D1 was cross-linked on SulfoLink agarose support (PIERCE). CDK4-6×His was expressed in Sf9 insect cells infected with the appropriate baculovirus construct and purified by metal-affinity chromatography (Quiagen). […] CDK4/Cyclin D1 phosphorilation of Rb was determined by incorporation of radio-labeled phosphate in GST-Rb in 96-well format kinase assay. […] The reaction was carried out for 30 min at 30 C at constant shaking. The GST-Rb-Sepharose beads were washed with 50 mM HEPES and 1 mM ATP and the radioactivity was measured on Scintillation counter (Topcount, HP)

CDK2/Cyclin E = molecular target: T2, CDK2/Cyclin E (Homo sapiens, UniProt P24864); assay: CDK2/Cyclin E kinase assay, phosphorylation of GST-Rb; assay type: biochemical; settings: for Kinase Inhibition Cyclin E/CDK2 % Inhibition / Kinase Inhibition Cyclin E/CDK2 IC30: GST-pRb substrate, [ATP] = 100 μM
T2 construct: 6xHis; made in house; host or cells: Sf9 insect cells (baculovirus co-expression)
Method: as §1

[1] = GST-pRb substrate, [ATP] = 100 μM

H-His Ala-Lys-Arg-Pro-Leu-Ile Phe-NH2 (H-HAKRPLIF-NH2)
Relative activity Kinase Inhibition (CDK2/cyclin A; Arg156 substitutions): <0.1 | Relative activity Cyclin A Binding (Cyclin A; Arg156 substitutions): <0.1

H-His-Ala-Lys-Arg-Arg-Leu-Ile-Tic-NH2 (H-HAKRRLI[Tic]-NH2; SMILES CC[C@H](C)[C@H](NC(=O)[C@H](CC(C)C)NC(=O)[C@H](CCCNC(=N)N)NC(=O)[C@H](CCCNC(=N)N)NC(=O)[C@H](CCCCN)NC(=O)[C@H](C)NC(=O)[C@@H](N)Cc1c[nH]cn1)C(=O)N1Cc2ccccc2C[C@H]1C(N)=O)
Relative activity Kinase Inhibition (CDK2/cyclin A; Phe159 substitutions): 0.3 | Relative activity Cyclin A Binding (Cyclin A; Phe159 substitutions): <0.1

H-His-Ala-Leu-Arg-Arg-Leu-Ile Phe-NH2 (H-HALRRLIF-NH2)
Relative activity Kinase Inhibition (CDK2/cyclin A; Lys154 substitutions): 0.1 | Relative activity Cyclin A Binding (Cyclin A; Lys154 substitutions): 1.4

H-Phe-Ala-Lys-Arg-Arg-Leu.Ile Phe-NH2 (H-FAKRRLIF-NH2)
Relative activity Kinase Inhibition (CDK2/cyclin A; His152 substitutions): 3 | Relative activity Cyclin A Binding (Cyclin A; His152 substitutions): 1

HAKRRLAF-NH2
Relative activity Kinase Inhibition (CDK2/cyclin A; Ile158 substitutions): 0.3 | Relative activity Cyclin A Binding (Cyclin A; Ile158 substitutions): 0.8

CC[C@H](C)[C@H](NC(=O)[C@H](CC(C)C)NC(=O)[C@H](CCCNC(=N)N)NC(=O)[C@H](CCCNC(=N)N)NC(=O)[C@H](CCCCN)NC(=O)[C@H](CO)NC(=O)[C@@H](N)Cc1c[nH]cn1)C(=O)N[C@@H](Cc1ccccc1)C(N)=O
inhibition at 100 µM (CDK4/Cyclin D1; [1]): 72% | IC50 (CDK4/Cyclin D1; phosphorylation of pRb, read-out: Kinase Inhibition Cyclin D1/CDK4 IC50): 21 µM | IC50 (CDK2/Cyclin E; phosphorylation of pRb, read-out: Kinase Inhibition Cyclin E/CDK2 IC50): 3.4 µM | Kinase Inhibition Cyclin A/CDK2 % Inhibition (CDK2/cyclin A; phosphorylation of pRb): 80% | IC50 (CDK2/cyclin A; phosphorylation of pRb, read-out: Kinase Inhibition Cyclin A/CDK2 IC50): 3.4 µM

30 (SKRRLIF) [compound 30]
Cyclin A Binding Maximum Inhibition (Cyclin A): 20(at 100 (μM) %

H-His-Ala-Lys-Arg-Arg-Leu-Cha-Phe-NH2 (H-HAKRRL[Cha]F-NH2; SMILES CC(C)C[C@H](NC(=O)[C@H](CCCNC(=N)N)NC(=O)[C@H](CCCNC(=N)N)NC(=O)[C@H](CCCCN)NC(=O)[C@H](C)NC(=O)[C@@H](N)Cc1c[nH]cn1)C(=O)N[C@@H](CC1CCCCC1)C(=O)N[C@@H](Cc1ccccc1)C(N)=O)
Relative activity Kinase Inhibition (CDK2/cyclin A; Ile158 substitutions): 0.3 | Relative activity Cyclin A Binding (Cyclin A; Ile158 substitutions): 0.5

DFYHSKRRLIF
Kinase Inhibition Cyclin D1/CDK4 % Inhibition (CDK4/Cyclin D1; [1]): 70% | Kinase Inhibition Cyclin D1/CDK4 IC30 (CDK4/Cyclin D1; [1]): 13 ± 2 µM | Kinase Inhibition Cyclin E/CDK2 % Inhibition (CDK2/Cyclin E): 75% | Kinase Inhibition Cyclin E/CDK2 IC30 (CDK2/Cyclin E): 2 ± 0.2 µM

DFYHSKRRLIFA
Kinase Inhibition Cyclin D1/CDK4 % Inhibition (CDK4/Cyclin D1; [1]): 60% | Kinase Inhibition Cyclin D1/CDK4 IC30 (CDK4/Cyclin D1; [1]): 40 µM | Kinase Inhibition Cyclin E/CDK2 % Inhibition (CDK2/Cyclin E): 70%

DFAHSKRRLIFS
Kinase Inhibition Cyclin D1/CDK4 % Inhibition (CDK4/Cyclin D1; [1]): 56% | Kinase Inhibition Cyclin D1/CDK4 IC30 (CDK4/Cyclin D1; [1]): 121 ± 31 µM | Kinase Inhibition Cyclin E/CDK2 % Inhibition (CDK2/Cyclin E): 80% | Kinase Inhibition Cyclin E/CDK2 IC30 (CDK2/Cyclin E): 5.3 ± 0.6 µM

DFYHSKRRL
Kinase Inhibition Cyclin D1/CDK4 % Inhibition (CDK4/Cyclin D1; [1]): 10% | Kinase Inhibition Cyclin E/CDK2 % Inhibition (CDK2/Cyclin E): 50% | Kinase Inhibition Cyclin E/CDK2 IC30 (CDK2/Cyclin E): 200 µM

MTDFYHSKRRLI (H-MTDFYHSKRRLI-NH2)
Kinase Inhibition Cyclin D1/CDK4 % Inhibition (CDK4/Cyclin D1; [1]): 11% | Kinase Inhibition Cyclin E/CDK2 % Inhibition (CDK2/Cyclin E): 35%

HSKRRLI (H-HSKRRLI-NH2)
Kinase Inhibition Cyclin D1/CDK4 % Inhibition (CDK4/Cyclin D1; [1]): 10% | Kinase Inhibition Cyclin E/CDK2 % Inhibition (CDK2/Cyclin E): 35%

DFYASKRRLIFS
Kinase Inhibition Cyclin D1/CDK4 % Inhibition (CDK4/Cyclin D1; [1]): 60% | Kinase Inhibition Cyclin D1/CDK4 IC30 (CDK4/Cyclin D1; [1]): 73 ± 42 µM | Kinase Inhibition Cyclin E/CDK2 % Inhibition (CDK2/Cyclin E): 80% | Kinase Inhibition Cyclin E/CDK2 IC30 (CDK2/Cyclin E): 5.1 ± 0.5 µM

DFYHSARRLIFS
Kinase Inhibition Cyclin D1/CDK4 % Inhibition (CDK4/Cyclin D1; [1]): 50% | Kinase Inhibition Cyclin D1/CDK4 IC30 (CDK4/Cyclin D1; [1]): 200 µM | Kinase Inhibition Cyclin E/CDK2 % Inhibition (CDK2/Cyclin E): 80% | Kinase Inhibition Cyclin E/CDK2 IC30 (CDK2/Cyclin E): 12.9 ± 2.4 µM

HSKRRLIFS
Kinase Inhibition Cyclin D1/CDK4 % Inhibition (CDK4/Cyclin D1; [1]): 65% | Kinase Inhibition Cyclin D1/CDK4 IC30 (CDK4/Cyclin D1; [1]): 32 ± 6 µM | Kinase Inhibition Cyclin E/CDK2 % Inhibition (CDK2/Cyclin E): 80%

DFYHSKRR (H-DFYHSKRR-NH2)
Kinase Inhibition Cyclin D1/CDK4 % Inhibition (CDK4/Cyclin D1; [1]): 10% | Kinase Inhibition Cyclin E/CDK2 % Inhibition (CDK2/Cyclin E): 40%

AFYHSKRRLIFS
Kinase Inhibition Cyclin D1/CDK4 % Inhibition (CDK4/Cyclin D1; [1]): 72% | Kinase Inhibition Cyclin D1/CDK4 IC30 (CDK4/Cyclin D1; [1]): 22 ± 4 µM | Kinase Inhibition Cyclin E/CDK2 % Inhibition (CDK2/Cyclin E): 70% | Kinase Inhibition Cyclin E/CDK2 IC30 (CDK2/Cyclin E): 11 ± 2 µM

24 (FYHSKRRLIFS) [compound 24]
Cyclin A Binding Maximum Inhibition (Cyclin A): 50(at 100 (μM) %

DFYHSKRALIFS
Kinase Inhibition Cyclin D1/CDK4 % Inhibition (CDK4/Cyclin D1; [1]): 30% | Kinase Inhibition Cyclin E/CDK2 % Inhibition (CDK2/Cyclin E): 70% | Kinase Inhibition Cyclin E/CDK2 IC30 (CDK2/Cyclin E): 30 ± 8 µM

YHSKRRLI
Kinase Inhibition Cyclin D1/CDK4 % Inhibition (CDK4/Cyclin D1; [1]): 15% | Kinase Inhibition Cyclin E/CDK2 % Inhibition (CDK2/Cyclin E): 45% | Kinase Inhibition Cyclin E/CDK2 IC30 (CDK2/Cyclin E): >200 µM

SMTDFYHSKRRL (H-SMTDFYHSKRRL-NH2)
Kinase Inhibition Cyclin D1/CDK4 % Inhibition (CDK4/Cyclin D1; [1]): 18% | Kinase Inhibition Cyclin E/CDK2 % Inhibition (CDK2/Cyclin E): 40%

FYHSKRRLIFS
Kinase Inhibition Cyclin D1/CDK4 % Inhibition (CDK4/Cyclin D1; [1]): 70% | Kinase Inhibition Cyclin D1/CDK4 IC30 (CDK4/Cyclin D1; [1]): 22 ± 5 µM | Kinase Inhibition Cyclin E/CDK2 % Inhibition (CDK2/Cyclin E): 80% | Kinase Inhibition Cyclin E/CDK2 IC30 (CDK2/Cyclin E): 6.8 ± 1.0 µM

DAYHSKRRLIFS
Kinase Inhibition Cyclin D1/CDK4 % Inhibition (CDK4/Cyclin D1; [1]): 76% | Kinase Inhibition Cyclin D1/CDK4 IC30 (CDK4/Cyclin D1; [1]): 37 ± 6 µM | Kinase Inhibition Cyclin E/CDK2 % Inhibition (CDK2/Cyclin E): 85% | Kinase Inhibition Cyclin E/CDK2 IC30 (CDK2/Cyclin E): 5.9 ± 0.4 µM

SKRRLIF
Kinase Inhibition Cyclin D1/CDK4 % Inhibition (CDK4/Cyclin D1; [1]): 72% | Kinase Inhibition Cyclin D1/CDK4 IC30 (CDK4/Cyclin D1; [1]): 54 µM | Kinase Inhibition Cyclin E/CDK2 % Inhibition (CDK2/Cyclin E): 80% | Kinase Inhibition Cyclin E/CDK2 IC30 (CDK2/Cyclin E): 7.7 ± 0.5 µM
